Test results taken from US20050282818A1, “Ubiquitin ligase inhibitors” (Rigel Pharmaceuticals, Inc., priority 2004, published 2005).

Columns and labels:
TRAF6/Uev1A/Ubc13 = biological target: T1, TRAF6/Uev1A/Ubc13 (Homo sapiens, UniProt Q9Y4K3); assay: TRAF6/Uev1A/Ubc13 plate-based ubiquitin ligase assay; format: biochemical
T1 sequence (Q9Y4K3 1-522): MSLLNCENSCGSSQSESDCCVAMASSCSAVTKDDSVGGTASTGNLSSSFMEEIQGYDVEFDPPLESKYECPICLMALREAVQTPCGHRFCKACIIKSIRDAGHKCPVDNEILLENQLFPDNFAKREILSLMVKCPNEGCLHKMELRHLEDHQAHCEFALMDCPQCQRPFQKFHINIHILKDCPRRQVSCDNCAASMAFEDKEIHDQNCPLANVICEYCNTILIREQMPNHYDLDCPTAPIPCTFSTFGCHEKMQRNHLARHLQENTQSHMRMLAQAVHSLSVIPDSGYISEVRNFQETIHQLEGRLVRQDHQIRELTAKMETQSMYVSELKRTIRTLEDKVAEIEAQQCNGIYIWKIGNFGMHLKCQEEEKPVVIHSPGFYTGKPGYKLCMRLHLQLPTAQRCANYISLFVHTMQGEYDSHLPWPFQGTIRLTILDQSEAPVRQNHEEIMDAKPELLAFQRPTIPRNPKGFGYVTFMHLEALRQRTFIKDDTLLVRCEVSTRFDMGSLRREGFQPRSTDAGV
Outline: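 Ligase activity was read as luminescence from anti-Flag/HRP detection of Flag-ubiquitin bound to casein-blocked Ni-plates alongside His-ubiquitin after a 1 h room-temperature reaction. Buffer: 62.5 mM Tris pH 7.5, 6.25 mM MgCl2, 1.0 mM DTT, 2 μM ATP; E1, Uev1a/Ubc13 and TRAF6 added last to start. IC50s derived across compound concentrations.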

[1] = system: ICAM-1 expression in A549 cells; assay: ICAM assay (IL-1 induced ICAM-1/CD54 expression in A549 cells); format: cell-based, human; conditions: Homo sapiens, A549, ICAM assay
Outline: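 Luminescent immunostaining (anti-CD54, then anti-mouse IgG, 1 h) quantifies ICAM-1 on A549 cells induced 4 h at 37° C by IL-1 (4 μl of 25 ng/ml added). Compound is added 1 h before the cytokine to cells plated overnight at 10,000 per well.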

APC11/APC2 = APC11/APC2 (Homo sapiens, UniProt Q9NYG5+Q9UJX6); assay: APC-11/APC-2 ligase assay (APC auto ubiquitination); format: biochemical; conditions: APC assay
Sequence of APC11/APC2 (Q9NYG5 whole entry): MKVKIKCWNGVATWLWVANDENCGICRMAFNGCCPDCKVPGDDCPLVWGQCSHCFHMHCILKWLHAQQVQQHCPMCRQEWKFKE
Sequence of APC11/APC2 (Q9UJX6 whole entry): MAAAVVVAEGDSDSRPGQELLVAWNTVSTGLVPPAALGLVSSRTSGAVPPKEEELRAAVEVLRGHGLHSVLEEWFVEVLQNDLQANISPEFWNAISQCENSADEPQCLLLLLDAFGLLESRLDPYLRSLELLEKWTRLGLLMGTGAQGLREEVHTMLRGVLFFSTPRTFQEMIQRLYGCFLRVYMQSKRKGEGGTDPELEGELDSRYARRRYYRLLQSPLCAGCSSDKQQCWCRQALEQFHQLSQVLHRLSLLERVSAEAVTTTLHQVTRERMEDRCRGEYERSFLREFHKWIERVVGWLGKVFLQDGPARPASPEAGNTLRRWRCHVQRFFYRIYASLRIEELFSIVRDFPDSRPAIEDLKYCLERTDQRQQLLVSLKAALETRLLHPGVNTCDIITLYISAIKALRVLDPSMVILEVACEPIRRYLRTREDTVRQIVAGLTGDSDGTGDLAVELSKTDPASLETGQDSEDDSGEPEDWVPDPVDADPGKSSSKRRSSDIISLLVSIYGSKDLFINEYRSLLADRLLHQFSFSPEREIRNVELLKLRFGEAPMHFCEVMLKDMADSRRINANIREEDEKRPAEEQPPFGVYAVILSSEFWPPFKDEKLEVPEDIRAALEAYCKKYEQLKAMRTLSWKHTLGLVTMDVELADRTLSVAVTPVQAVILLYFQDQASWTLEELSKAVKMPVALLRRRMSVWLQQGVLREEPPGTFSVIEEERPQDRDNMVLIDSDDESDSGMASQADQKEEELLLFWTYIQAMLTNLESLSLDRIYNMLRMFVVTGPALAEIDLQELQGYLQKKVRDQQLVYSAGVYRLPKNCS
Outline: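 His-tagged APC was captured on nickel plates with human E1 (5 ng/well), UbcH5c (20 ng/well), APC (100 ng/well) and Flag-ubiquitin (100 ng/well) in a Tris pH 7.6 reaction buffer containing 2.5 mM ATP, for 1 hour at room temperature. Read-out was anti-Flag/HRP chemiluminescence. IC50 was set against a DMSO control, typically from 6 or 8 concentrations.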

Structure (SMILES) | IC50 (TRAF6/Uev1A/Ubc13) | IC50 [1] | IC50 (APC11/APC2)
O=S(=O)(Nc1cccc2ccc(O)cc12)c1ccc(N2CCOCC2)c2nonc12 [compound 385, N-(7-hydroxynaphthalen-1-yl)-7-(morpholin-4-yl)-2,1,3-benzoxadiazole-4-sulfonamide] | ≥ 20 µM | ≥ 20 µM | ≥ 20 µM
COc1cc(C)ccc1NS(=O)(=O)c1ccc(N2CCOCC2)c2nonc12 [compound 386, N-(2-methoxy-4-methylphenyl)-7-(morpholin-4-yl)-2,1,3-benzoxadiazole-4-sulfonamide] | ≥ 20 µM | ≥ 20 µM | ≥ 20 µM
Nc1cccc2c(NS(=O)(=O)c3ccc(Cl)c4nonc34)cccc12 [compound 387, N-(5-aminonaphthalen-1-yl)-7-chloro-2,1,3-benzoxadiazole-4-sulfonamide] | ≥ 20 µM | 1 to 20 µM | ≥ 20 µM
O=[N+]([O-])c1ccc(NS(=O)(=O)c2ccc(Cl)c3nonc23)c2ccccc12 [compound 388, 7-chloro-N-(4-nitronaphthalen-1-yl)-2,1,3-benzoxadiazole-4-sulfonamide] | ≥ 20 µM | ≥ 20 µM | ≥ 20 µM
Nc1cccc2c(NS(=O)(=O)c3ccc(N4CCOCC4)c4nonc34)cccc12 [compound 389] | ≥ 20 µM | ≥ 20 µM | ≥ 20 µM
Nc1cccc2c(NS(=O)(=O)c3ccc(Sc4cccc5cccnc45)c4nonc34)cccc12 [compound 390, N-(5-aminonaphthalen-1-yl)-7-(quinolin-8-ylthio)-2,1,3-benzoxadiazole-4-sulfonamide] | 1 to 20 µM | ≥ 20 µM | 1 to 20 µM
Nc1ccc(OS(=O)(=O)c2ccc(Cl)c3nonc23)c2ccccc12 [compound 391, 4-aminonaphthalen-1-yl 7-chloro-2,1,3-benzoxadiazole-4-sulfonate] | 1 to 20 µM | 1 to 20 µM | 1 to 20 µM
O=S(=O)(Nc1cccc2ccccc12)c1ccc(Cl)c2nonc12 [compound 392, 7-chloro-N-(naphthalen-1-yl)-2,1,3-benzoxadiazole-4-sulfonamide] | ≥ 20 µM | 1 to 20 µM | ≥ 20 µM
O=S(=O)(Nc1ccc(O)c2ccccc12)c1ccc(Cl)c2nonc12 [compound 393, 7-chloro-N-(4-hydroxynaphthalen-1-yl)-2,1,3-benzoxadiazole-4-sulfonamide] | 1 to 20 µM | 1 to 20 µM | 1 to 20 µM
O=S(=O)(Nc1ccc(OS(=O)(=O)c2ccc(Cl)c3nonc23)c2ccccc12)c1ccc(Cl)c2nonc12 [compound 394, 4-(7-chloro-2,1,3-benzoxadiazole-4-sulfonamido)naphthalen-1-yl 7-chloro-2,1,3-benzoxadiazole-4-sulfonate] | 1 to 20 µM | 1 to 20 µM | 1 to 20 µM
Nc1ccc(Nc2cccc(F)c2F)c2nonc12 [compound 396, 7-{(2,3-difluorophenyl)amino}-2,1,3-benzoxadiazol-4-amine] | ≥ 20 µM | ≥ 20 µM | ≥ 20 µM
O=[N+]([O-])c1ccc(Nc2cccc(F)c2F)c2nonc12 [compound 397, N-(2,3-difluorophenyl)-7-nitro-2,1,3-benzoxadiazol-4-amine] | ≥ 20 µM | ≥ 20 µM | ≥ 20 µM
Nc1ccc(Nc2ccc3[nH]ncc3c2)c2nonc12 [compound 398, N-(1H-indazol-5-yl)-2,1,3-benzoxadiazole-4,7-diamine] | ≥ 20 µM | 1 to 20 µM | ≥ 20 µM
O=C(O)c1ccc(NS(=O)(=O)c2ccc(Cl)c3nonc23)cc1 [compound 399, 4-(7-chloro-2,1,3-benzoxadiazole-4-sulfonamido)benzoic acid] | ≥ 20 µM | ≥ 20 µM | ≥ 20 µM
O=[N+]([O-])c1ccc(Nc2ccccc2F)c2nonc12 [compound 401, N-(2-fluorophenyl)-7-nitro-2,1,3-benzoxadiazol-4-amine] | ≥ 20 µM | ≥ 20 µM | ≥ 20 µM
O=S(=O)(Nc1cccc(F)c1F)c1ccc(Sc2ccc(O)cc2)c2nonc12 [compound 402, N-(2,3-difluorophenyl)-7-([4-hydroxyphenyl]thio)-2,1,3-benzoxadiazole-4-sulfonamide] | ≥ 20 µM | ≥ 20 µM | 1 to 20 µM

Structure (SMILES) | IC50 (TRAF6/Uev1A/Ubc13) | IC50 [1] | IC50 (APC11/APC2)
COc1ccccc1C(=O)Nc1ccc(Nc2cccc(F)c2F)c2nonc12 [compound 403, N-(7-[{2,3-difluorophenyl}amino]-2,1,3-benzoxadiazol-4-yl)-2-methoxybenzamide] | ≥ 20 µM | ≥ 20 µM | ≥ 20 µM
COc1ccccc1Nc1ccc(S(=O)(=O)Nc2ccccc2F)c2nonc12 [compound 404, N-(2-fluorophenyl)-7-([2-methoxyphenyl]amino)-2,1,3-benzoxadiazole-4-sulfonamide] | ≥ 20 µM | ≥ 20 µM | ≥ 20 µM
Fc1cc2nonc2c(N2CCOCC2)c1F [compound 405, 5,6-difluoro-4-(morpholin-4-yl)-2,1,3-benzoxadiazole] | ≥ 20 µM | ≥ 20 µM | ≥ 20 µM
Fc1c(N2CCOCC2)cc2nonc2c1F [compound 406, 4,5-difluoro-6-(morpholin-4-yl)-2,1,3-benzoxadiazole] | ≥ 20 µM | ≥ 20 µM | ≥ 20 µM
O=S(=O)(Nc1cccc2ccccc12)c1ccc(Sc2cccc3cccnc23)c2nonc12 [compound 407, N-(naphthalen-1-yl)-7-(quinolin-8-ylthio)-2,1,3-benzoxadiazole-4-sulfonamide] | 1 to 20 µM | 1 to 20 µM | 1 to 20 µM
COc1cccc(Nc2ccc3nonc3c2S(=O)(=O)Nc2cccc(OC)c2OC)c1OC [compound 408, N-(2,3-dimethoxyphenyl)-5-([2,3-dimethoxyphenyl]amino)-2,1,3-benzoxadiazole-4-sulfonamide] | ≥ 20 µM | 1 to 20 µM | ≥ 20 µM
COc1cccc(NS(=O)(=O)c2c(Cl)ccc3nonc23)c1OC [compound 409, 5-chloro-N-(2,3-dimethoxyphenyl)-2,1,3-benzoxadiazole-4-sulfonamide] | ≥ 20 µM | 1 to 20 µM | ≥ 20 µM
COc1cccc(NS(=O)(=O)c2ccc(Cl)c3nonc23)c1OC [compound 410, 7-chloro-N-(2,3-dimethoxyphenyl)-2,1,3-benzoxadiazole-4-sulfonamide] | ≥ 20 µM | 1 to 20 µM | ≥ 20 µM
O=S(=O)(c1c(Cl)cc(Cl)c2nonc12)N1CCOCC1 [compound 411, 5,7-dichloro-4-{(morpholin-4-yl)sulfonyl}-2,1,3-benzoxadiazole] | 1 to 20 µM | 1 to 20 µM | ≥ 20 µM
O=S(=O)(c1c(N2CCOCC2)cc(Cl)c2nonc12)N1CCOCC1 [compound 412, 7-chloro-5-(morpholin-4-yl)-4-{(morpholin-4-yl)sulfonyl}-2,1,3-benzoxadiazole] | ≥ 20 µM | 1 to 20 µM | ≥ 20 µM
COc1cccc(NS(=O)(=O)c2ccc(Sc3cccc4ccccc34)c3nonc23)c1OC [compound 413, N-(2,3-dimethoxyphenyl)-7-(naphthalen-1-ylthio)-2,1,3-benzoxadiazole-4-sulfonamide] | 1 to 20 µM | 1 to 20 µM | 1 to 20 µM
O=S(=O)(Nc1c(F)cccc1F)c1c(Cl)cc(Cl)c2nonc12 [compound 414, 5,7-dichloro-N-(2,6-difluorophenyl)-2,1,3-benzoxadiazole-4-sulfonamide] | 1 to 20 µM | 1 to 20 µM | 1 to 20 µM
O=S(=O)(Nc1cccc2ccccc12)c1c(Nc2cccc3ccccc23)cc(Cl)c2nonc12 [compound 415, 7-chloro-N-(naphthalen-1-yl)-5-(naphthalen-1-ylamino)-2,1,3-benzoxadiazole-4-sulfonamide] | 1 to 20 µM | 1 to 20 µM | 1 to 20 µM
O=S(=O)(Nc1cccc2ccccc12)c1c(Cl)cc(Cl)c2nonc12 [compound 416, 5,7-dichloro-N-(naphthalen-1-yl)-2,1,3-benzoxadiazole-4-sulfonamide] | 1 to 20 µM | 1 to 20 µM | 1 to 20 µM
O=S(=O)(Nc1cccc2ccccc12)c1c(Cl)cc(Nc2cccc3ccccc23)c2nonc12 [compound 417, 5-chloro-N-(naphthalen-1-yl)-7-(naphthalen-1-ylamino)-2,1,3-benzoxadiazole-4-sulfonamide] | 1 to 20 µM | 1 to 20 µM | 1 to 20 µM
